The assay has as its system CD2F1 mice, L1210 leukemia ip, survival T/C. Description: NCI In Vivo Anticancer Drug Screen. Data for tumor model L1210 Leukemia (intraperitoneal) in CD2F1 (CDF1) mice. The following applies: endpoint: mean survival time, higher = longer survival. In a few lines:
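Implant tumor; dose compound or vehicle; measure endpoint in both groups; report treated divided by control.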

The mark [1] stands for this setting: dose: 100.0 mg/kg/injection, schedule: Q04DX002 (ip), vehicle: saline with Tween-80.
The mark [2] stands for this setting: dose: 200.0 mg/kg/injection, schedule: Q04DX002 (ip), vehicle: saline with Tween-80.
The mark [3] stands for this setting: dose: 400.0 mg/kg/injection, schedule: Q04DX002 (ip), vehicle: saline with Tween-80.
[4] abbreviates: dose: 100.0 mg/kg/injection, schedule: Q01DX001 (ip), vehicle: Klucel (hydroxypropylcellulose) (HPC).
The mark [5] stands for this setting: dose: 200.0 mg/kg/injection, schedule: Q01DX001 (ip), vehicle: Klucel (hydroxypropylcellulose) (HPC).
Where [6] appears, read: dose: 50.0 mg/kg/injection, schedule: Q01DX009 (ip), vehicle: saline with Tween-80.
Setting [7] is: dose: 100.0 mg/kg/injection, schedule: Q01DX009 (ip), vehicle: saline with Tween-80.
[8] abbreviates: dose: 200.0 mg/kg/injection, schedule: Q01DX009 (ip), vehicle: saline with Tween-80.
Setting [9] is: dose: 100.0 mg/kg/injection, schedule: Q04DX003 (ip), vehicle: saline with Tween-80.
[10] abbreviates: dose: 200.0 mg/kg/injection, schedule: Q04DX003 (ip), vehicle: saline with Tween-80.
Setting [11] is: dose: 400.0 mg/kg/injection, schedule: Q04DX003 (ip), vehicle: saline with Tween-80.
Where [12] appears, read: dose: 400.0 mg/kg/injection, schedule: Q01DX009 (ip), vehicle: saline with Tween-80.

Values joined by “and” are separate entries in the source; they are usually repeats but may differ in a detail not shown here. Identical values can stand only once. Toxic doses and inconclusive results are not listed.

The record followed here is PubChem BioAssay AID256 (DTP/NCI, 2004).

Regarding `N#Cc1cccc(/C=C/c2ccc(S(=O)(=O)F)cc2)c1`, the T/C runs as follows: (dose: 100.0 mg/kg/injection, schedule: Q01DX001 (ip), vehicle: other) 95 % of control and 102 % of control; (dose: 100.0 mg/kg/injection, schedule: Q04DX002 (ip), vehicle: other) 92 % of control and 98 % of control; (dose: 100.0 mg/kg/injection, schedule: Q04DX003 (ip), vehicle: other) 100 % of control and 111 % of control; (dose: 200.0 mg/kg/injection, schedule: Q01DX001 (ip), vehicle: other) 88 % of control and 102 % of control; (dose: 200.0 mg/kg/injection, schedule: Q04DX002 (ip), vehicle: other) 101 % of control and 107 % of control; (dose: 200.0 mg/kg/injection, schedule: Q04DX003 (ip), vehicle: other) 99 % of control and 105 % of control. In addition, the T/C (dose: 400.0 mg/kg/injection, schedule: Q01DX001 (ip), vehicle: other) is 92 % of control and 103 % of control; the T/C (dose: 400.0 mg/kg/injection, schedule: Q04DX002 (ip), vehicle: other) was 93 % of control and 107 % of control.

Turning to `CCSC(C(OC(C)=O)C(OC(C)=O)C(COC(C)=O)OC(C)=O)n1cc(F)c(=O)[nH]c1=O` (configuration not stated), the T/C is 100 % of control and 104 % of control (dose: 12.5 mg/kg/injection, schedule: Q01DX005 (ip), vehicle: other); 98 % of control and 105 % of control (dose: 25.0 mg/kg/injection, schedule: Q01DX005 (ip), vehicle: other); 88 % of control and 98 % of control (dose: 50.0 mg/kg/injection, schedule: Q01DX005 (ip), vehicle: other); 98 % of control and 105 % of control (dose: 100.0 mg/kg/injection, schedule: Q01DX005 (ip), vehicle: other); 94 % of control and 107 % of control (dose: 200.0 mg/kg/injection, schedule: Q01DX005 (ip), vehicle: other).

Take `OCC1OC(n2cnc3c2[nH]c(=S)n2ccnc32)C(O)C1O` (configuration not stated): the T/C by setting is: (dose: 12.5 mg/kg/injection, schedule: Q01DX005 (ip), vehicle: water) 96 % of control; (dose: 25.0 mg/kg/injection, schedule: Q01DX005 (ip), vehicle: water) 101 % of control; (dose: 50.0 mg/kg/injection, schedule: Q01DX005 (ip), vehicle: water) 96 % of control; (dose: 100.0 mg/kg/injection, schedule: Q01DX005 (ip), vehicle: water) 101 % of control; (dose: 200.0 mg/kg/injection, schedule: Q01DX005 (ip), vehicle: water) 101 % of control.

On to `CC(=O)CN(C(C)=O)c1ccccc1`, for which the T/C runs as follows: under setting [1], 105 % of control; under setting [2], 97 % of control; under setting [3], 109 % of control.

For `CC1(C(=O)Sc2ccccc2)OC1(C)c1ccccc1` (configuration not stated), the T/C reads like this: under setting [4], 97 % of control; under setting [5], 108 % of control; (dose: 400.0 mg/kg/injection, schedule: Q01DX001 (ip), vehicle: Klucel (hydroxypropylcellulose) (HPC)) 97 % of control.

For the compound `CCC1COCC1Cc1cncn1C` (configuration not stated), the T/C reads like this: (dose: 75.0 mg/kg/injection, schedule: Q01DX001 (ip), vehicle: saline) 97 % of control; (dose: 150.0 mg/kg/injection, schedule: Q01DX001 (ip), vehicle: saline) 101 % of control; (dose: 300.0 mg/kg/injection, schedule: Q01DX001 (ip), vehicle: saline) 100 % of control.

Regarding `c1ccc(C(OOC(c2ccccc2)(c2ccccc2)c2ccccc2)(c2ccccc2)c2ccccc2)cc1`, the T/C is 90 % of control under setting [6], 90 % of control under setting [7] and 90 % of control under setting [8].

Consider `CS(=O)(=O)OCCN(CCOS(C)(=O)=O)c1ccc(N=Nc2ccccc2C(=O)O)cc1`, for which the T/C reads like this: (dose: 1.56 mg/kg/injection, schedule: Q01DX009 (ip), vehicle: Klucel (hydroxypropylcellulose) (HPC)) 124 % of control; (dose: 3.12 mg/kg/injection, schedule: Q01DX009 (ip), vehicle: Klucel (hydroxypropylcellulose) (HPC)) 155 % of control; (dose: 6.25 mg/kg/injection, schedule: Q01DX009 (ip), vehicle: Klucel (hydroxypropylcellulose) (HPC)) 176 % of control.

`O=C(CBr)c1ccccc1`: the T/C (dose: 5.0 mg/kg/injection, schedule: Q01DX009 (ip), vehicle: saline with Tween-80) was 97 % of control and the T/C (dose: 10.0 mg/kg/injection, schedule: Q01DX009 (ip), vehicle: saline with Tween-80) was 93 % of control.

Consider `CCC1OCC(C(Cl)CCl)O1` (configuration not stated), for which the T/C by setting is: (dose: 12.5 mg/kg/injection, schedule: Q01DX009 (ip), vehicle: Klucel (hydroxypropylcellulose) (HPC)) 94 % of control and 101 % of control; (dose: 25.0 mg/kg/injection, schedule: Q01DX009 (ip), vehicle: Klucel (hydroxypropylcellulose) (HPC)) 99 % of control and 102 % of control; (dose: 50.0 mg/kg/injection, schedule: Q01DX009 (ip), vehicle: Klucel (hydroxypropylcellulose) (HPC)) 95 % of control and 96 % of control; (dose: 100.0 mg/kg/injection, schedule: Q01DX009 (ip), vehicle: Klucel (hydroxypropylcellulose) (HPC)) 94 % of control and 107 % of control; (dose: 200.0 mg/kg/injection, schedule: Q01DX009 (ip), vehicle: Klucel (hydroxypropylcellulose) (HPC)) 90 % of control and 91 % of control; (dose: 400.0 mg/kg/injection, schedule: Q01DX009 (ip), vehicle: Klucel (hydroxypropylcellulose) (HPC)) 87 % of control.

For the compound `CC1(C)N=C(N)N=C(N)N1c1ccc(CCCCc2ccc(Cl)cc2Cl)cc1`, the T/C reads like this: (dose: 6.25 mg/kg/injection, schedule: Q01DX009 (ip), vehicle: saline with Tween-80) 98 % of control; (dose: 6.25 mg/kg/injection, schedule: Q04DX003 (ip), vehicle: saline sonified) 96 % of control; (dose: 12.5 mg/kg/injection, schedule: Q01DX009 (ip), vehicle: saline with Tween-80) 102 % of control; (dose: 12.5 mg/kg/injection, schedule: Q04DX003 (ip), vehicle: saline sonified) 98 % of control; (dose: 25.0 mg/kg/injection, schedule: Q04DX003 (ip), vehicle: saline sonified) 100 % of control.

Take `C=C(C)CN=C=S`: the T/C under setting [9] was 98 % of control.

Turning to `N#CC(CC(=O)c1ccccc1)c1ccccc1` (configuration not stated), the T/C was 90 % of control under setting [9], 102 % of control under setting [10] and 104 % of control under setting [11].

Take `Cc1ccc(NC(=O)/C=C/c2ccccc2)c(C)c1`: the T/C under setting [1] is 94 % of control, the T/C under setting [2] was 94 % of control and the T/C under setting [3] was 94 % of control.

As to `CN1COc2c(Cl)cc(Cl)cc2C1`, the T/C was 104 % of control (dose: 25.0 mg/kg/injection, schedule: Q01DX009 (ip), vehicle: saline); 104 % of control (dose: 50.0 mg/kg/injection, schedule: Q01DX009 (ip), vehicle: saline); 115 % of control (dose: 100.0 mg/kg/injection, schedule: Q01DX009 (ip), vehicle: saline); 98 % of control under setting [9].

With `CC1=CSCC(=O)N1`, the T/C reads like this: under setting [9], 101 % of control; under setting [10], 98 % of control; under setting [11], 108 % of control.

For `CC(NC1=C(Cl)C(=O)c2ccccc2C1=O)c1ccccc1` (configuration not stated), the T/C (dose: 25.0 mg/kg/injection, schedule: Q04DX003 (ip), vehicle: saline with Tween-80) is 102 % of control; the T/C (dose: 50.0 mg/kg/injection, schedule: Q04DX003 (ip), vehicle: saline with Tween-80) is 96 % of control; the T/C under setting [9] is 95 % of control.

As to `NC(=O)c1[nH]cnc1/N=N/N(CCF)CCF`, the T/C runs as follows: (dose: 8.8 mg/kg/injection, schedule: Q01DX001 (ip), vehicle: other) 121 % of control; (dose: 30.0 mg/kg/injection, schedule: Q01DX001 (ip), vehicle: other) 158 % of control.

Regarding `CCOC(=O)C(=O)C1CCc2c(ccc3ccccc23)C1=O` (configuration not stated), the T/C was 93 % of control (dose: 50.0 mg/kg/injection, schedule: Q04DX002 (ip), vehicle: saline with Tween-80); 91 % of control under setting [4]; 96 % of control under setting [1]; 93 % of control under setting [5]; 96 % of control under setting [2].

Consider `O=C(Nc1cc(Cl)c(Cl)cc1Cl)C1CC1`, for which the T/C is 119 % of control under setting [6], 101 % of control under setting [7] and 101 % of control under setting [8].

`C#CCN(CC#C)C(=O)CCCCCCCCC=C`: the T/C was 90 % of control under setting [7]; 107 % of control under setting [9]; 93 % of control under setting [8]; 92 % of control under setting [10]; 93 % of control under setting [12]; 98 % of control under setting [11].

With `C/C(=C\C(=O)c1ccccc1)OB(F)F`, the T/C is 98 % of control and 100 % of control under setting [7]; 110 % of control and 100 % of control under setting [8]; 100 % of control under setting [12].
